Where two headings read alike, the source gives them in different places.
What was measured:
[1] = tested on: DLD-1-BAG human colon carcinoma cells expressing as activated K-ras gene; assay: Cell Mat Assay, DLD-1 tumor cells; assay type: cell-based
[2] = tested on: SW620-BAG human colon carcinoma cells expressing an activated K-ras gene; assay: Cell Mat Assay, SW620 tumor cells; assay type: cell-based
[3] = tested on: DLD-1 (human colon carcinoma cells, ATCC # CCL 221); assay: In Vivo Anti-Tumor Studies, subcutaneous DLD-1 tumors; parameters: species or system athymic nu/nu female mice; conditions: Mus musculus, DLD-1, po, QID, 4 weeks, range over the listed compounds
From the text: Tumor cells (5 X 10^5 to 8 X 10^6) of DLD-1 (human colon carcinoma cells, ATCC # CCL 221) are innolculated subcutaneously into the flank of 5-6 week o;d athymic nu/nu female mice.

[4] = target: T1, farnesyl protein transferase (FPT) (Rattus norvegicus, UniProt Q02293+Q04631); assay: In vitro enzyme assay: inhibition of farnesyl protein transferase (transfer of [3H]farnesyl to Ras-CVLS); assay type: biochemical; conditions: partially purified rat brain FPT, Ras-CVLS
T1 construct: were partially purified from rat brain by ammonium sulfate fractionation followed by Q-Sepharose; from tissue; host or cells: rat brain
Protocol: • 1. In vitro enzyme assays: Inhibition of farnesyl protein transferase and geranylgeranyl protein transferase. […] Human farnesyl protein transferase was also expressed in E. coli, using cDNA clones encoding both the a and b subunits. […] Human farnesyl protein transferase was partially-purified from the soluble protein fraction of E. coli as described above. […] Two forms of val^12-Ha-Ras protein were prepared as substrates for these enzymes, differing in their carboxy terminal sequence. One form terminated in cysteine-valine-leucine-serine (Ras-CVLS) the other in cystein-valine-leucine-leucine (Ras-CVLL). Ras-CVLS is a substrate for the farnesyl protein transferase while Ras-CVLL is a substrate for geranylgeranyl protein transferase I. The cDNAs encoding these proteins were constructed so that the proteins contain an amino-terminal extension of 6 histidine residues. Both proteins were expressed in Escherichia coli and purified using metal chelate affinity chromatography. The radiolabelled isoprenyl pyrophosphate substrates, [^3H]farnesyl pyrophosphate and [^3H]geranylgeranyl pyrophosphate, were purchased from DuPont/New England Nuclear. […] The reaction was allowed to proceed for 30 minutes at room temperature and then stopped with 0.5 ml of 4% sodium dodecyl sulfate (SDS) followed by 0.5 ml of cold 30% TCA. Samples were allowed to sit on ice for 45 minutes and precipitated Ras protein was then collected on GF/C filter paper mats using a Brandel cell harvester. […] Percent inhibition was calculated relative to the DMSO vehicle control. The geranylgeranyl protein transferase I assay was essentially identical to the farnesyl protein transferase assay described above, with two exceptions: [^3H]geranylgeranylpyrophosphate replaced farnesyl pyrophosphate as the isoprenoid donor and Ras-CVLL was the protein acceptor. […] Cell-Based Assay: Transient expression of val^12-Ha-Ras-CVLS and val^12-Ha-Ras-CVLL in COS monkey kidney cells: Effect of farnesyl protein transferase inhibitors on Ras processing and on disordered cell growth induced by transforming Ras. COS monkey kidney cells were transfected by electroporation with the plasmid pSV-SPORT (Gibco/BRL) containing a cDNA insert encoding either Ras-CVLS or Ras-CVLL, leading to transient overexpression of a Ras substrate for either farnesyl protein transferase or geranylgeranyl protein transferase I, respectively (see above). Following electroporation, cells were plated into 6-well tissue culture dishes containing 1.5 ml of Dulbecco's-modified Eagle's media (GIBCO, Inc.) supplemented with 10% fetal calf serum and the appropriate farnesyl protein transferase inhibitors. After 24 hours, media was removed and fresh media containing the appropriate drugs was re-added. 48 hours after electroporation cells were examined under the microscope to monitor disordered cell growth induced by transforming Ras. Cells expressing transforming Ras become more rounded and refractile and overgrow the monolayer, reminiscent of the transformed phenotype. Cells were then photographed, washed twice with 1 ml of cold phosphate-buffered saline (PBS) and removed from the dish by scraping with a rubber policeman into 1 ml of a buffer containing 25 mM Tris, pH 8.0; 1 mM ethylenediamine tetraacetic acid; 1 mM phenylmethylsulfonyl fluoride; […] leupeptin; and 0.1 mM pepstatin. Cells were lysed by homogenization and cell debris was removed by centrifugation at 2000 x g for 10 min. Cellular protein was precipitated by addition of ice-cold trichloroacetic acid and redissolved in […] of SDS-electrophoresis sample buffer. […] Proteins resolved on the gels were electroblotted onto nitrocellulose membranes for immunodetection. […] After washing, membranes were incubated for one hour at room temperature with a 1:5000 dilution of secondary antibody, rabbit anti-rat IgG conjugated to horseradish peroxidase, in PBS containing 1% fetal calf serum.

[5] = tested on: T24-BAG4 human bladder carcinoma cells expressing an activated H-ras gene; assay: Cell Mat Assay, T24 tumor cells; assay type: cell-based; conditions: read-out: Tumor (T-24) IC50
[6] = tested on: Ras-CVLS processing in COS monkey kidney cells; assay: COS cell assay: inhibition of Ras-CVLS processing (Western blot); assay type: cell-based
From the text: • 1. In vitro enzyme assays: Inhibition of farnesyl protein transferase and geranylgeranyl protein transferase. Both farnesyl protein transferase (FPT) and geranylgeranyl protein transferase (GGPT) I were partially purified from rat brain by ammonium sulfate fractionation followed by Q-Sepharose (Pharmacia, Inc.) anion exchange chromatography essentially as described by Yokoyama et al (Yokoyama, K., et al., (1991), A protein geranylgeranyltransferase from bovine brain: Implications for protein prenylation specificity, Proc. Natl. Acad. Sci USA 88: 5302-5306, the disclosure of which is incorporated herein by reference thereto). Human farnesyl protein transferase was also expressed in E. coli, using cDNA clones encoding both the a and b subunits. The methods used were similar to those published (Omer, C. et al., (1993), Characterization of recombinant human farnesyl protein transferase: Cloning, expression, farnesyl diphosphate binding, and functional homology with yeast prenyl-protein transferases, Biochemistry 32:5167-5176). Human farnesyl protein transferase was partially-purified from the soluble protein fraction of E. coli as described above. […] Two forms of val^12-Ha-Ras protein were prepared as substrates for these enzymes, differing in their carboxy terminal sequence. One form terminated in cysteine-valine-leucine-serine (Ras-CVLS) the other in cystein-valine-leucine-leucine (Ras-CVLL). Ras-CVLS is a substrate for the farnesyl protein transferase while Ras-CVLL is a substrate for geranylgeranyl protein transferase I. The cDNAs encoding these proteins were constructed so that the proteins contain an amino-terminal extension of 6 histidine residues. Both proteins were expressed in Escherichia coli and purified using metal chelate affinity chromatography. The radiolabelled isoprenyl pyrophosphate substrates, [^3H]farnesyl pyrophosphate and [^3H]geranylgeranyl pyrophosphate, were purchased from DuPont/New England Nuclear. Several methods for measuring farnesyl protein transferase activity have been described (Reiss et al 1990, Cell 62: 81; Schaber et al 1990, J. Biol. Chem. 265: 14701; Manne et al 1990, PNAS 87: 7541; and Barbacid & Manne 1993, U.S. Patent No. 5,185,248). […] The reaction was allowed to proceed for 30 minutes at room temperature and then stopped with 0.5 ml of 4% sodium dodecyl sulfate (SDS) followed by 0.5 ml of cold 30% TCA. Samples were allowed to sit on ice for 45 minutes and precipitated Ras protein was then collected on GF/C filter paper mats using a Brandel cell harvester. Filter mats were washed once with 6% TCA, 2% SDS and radioactivity was measured in a Wallac 1204 Betaplate BS liquid scintillation counter. Percent inhibition was calculated relative to the DMSO vehicle control. The geranylgeranyl protein transferase I assay was essentially identical to the farnesyl protein transferase assay described above, with two exceptions: [^3H]geranylgeranylpyrophosphate replaced farnesyl pyrophosphate as the isoprenoid donor and Ras-CVLL was the protein acceptor. […] Cell-Based Assay: Transient expression of val^12-Ha-Ras-CVLS and val^12-Ha-Ras-CVLL in COS monkey kidney cells: Effect of farnesyl protein transferase inhibitors on Ras processing and on disordered cell growth induced by transforming Ras. COS monkey kidney cells were transfected by electroporation with the plasmid pSV-SPORT (Gibco/BRL) containing a cDNA insert encoding either Ras-CVLS or Ras-CVLL, leading to transient overexpression of a Ras substrate for either farnesyl protein transferase or geranylgeranyl protein transferase I, respectively (see above). Following electroporation, cells were plated into 6-well tissue culture dishes containing 1.5 ml of Dulbecco's-modified Eagle's media (GIBCO, Inc.) supplemented with 10% fetal calf serum and the appropriate farnesyl protein transferase inhibitors. After 24 hours, media was removed and fresh media containing the appropriate drugs was re-added.

[7] = tested on: Normal human HEPM fibroblasts; assay: Cell Mat Assay, normal cell mat; assay type: cell-based; conditions: normal monolayer
[8] = Homo sapiens, SW-620, Mat assay

SMILES | IC50 ([1]; Mat assay) [µM] | IC50 ([2]; Mat assay) [µM] | inhibition in vivo at 10 mg/kg ([3]; 10 mg/kg p.o.) [%] | inhibition in vivo at 50 mg/kg ([3]; 50 mg/kg p.o.) [%] | IC50 ([4]; FPT IC50, Table 1) [µM] | IC50 [5] [µM] | IC50 [6] [µM] | IC50 [7] [µM] | IC50 ([1]; Homo sapiens, DLD-1, Mat assay) [µM] | IC50 [2, 8] [µM] | IC50 ([4]; Table 1, read-out: FPT IC50) [µM] | IC50 ([5]; Homo sapiens) [µM] | IC50 ([6]; Primates, COS) [µM] | IC50 ([7]; Homo sapiens, Fibroblast) [µM]
NC(=O)N1CCC(CC(=O)N2CCN(C3c4ncc(Br)cc4CCc4cc(Cl)cc(Br)c43)CC2)CC1 (single isomer, unassigned) [Example 12B] | 3.1 | 6.25 | 7 to 50 | 35.4 to 83 | 0.0025 | < 1.6 | < 0.025 | > 25 | – | – | – | – | – | –
NC(=O)N1CCC(CC(=O)N2CCN([C@H]3c4ccc(Cl)cc4CCc4cc(Br)cnc43)CC2)CC1 [Example 17A] | – | – | – | – | – | – | – | – | 4 | 18 | 0.048 | 3.1 | 0.5 | > 25
NC(=O)N1CCC(CC(=O)N2CCN(C3c4ncc(Br)cc4CCc4cc(Cl)cc(Br)c43)CC2)CC1 (single isomer, unassigned) [Example 12A] | – | – | – | – | > 0.094 | – | 0.95 | – | 2 | 4 | – | < 1.6 | – | > 25
O=C(Cc1cc[n+]([O-])cc1)N1CCC(C2c3ccc(Cl)c(Br)c3CCc3cc(Br)cnc32)CC1 (single isomer, unassigned) [Example 14] | 6.25 | > 12.5 | – | – | – | < 1.6 | > 1 | > 25 | – | – | 0.062 | – | – | –
NC(=O)N1CCC(CC(=O)N2CCC(=C3c4ccc(Cl)c(Br)c4CCc4cc(Br)cnc43)CC2)CC1 (racemic) [Example 15] | – | – | – | – | – | – | – | – | 6.25 | > 6.25 | 0.022 | 3.1 | 0.6 | > 25
NC(=O)N1CCC(CC(=O)N2CCC(=C3c4ncc(Br)cc4CCc4cc(Cl)cc(Br)c43)CC2)CC1 (single isomer, unassigned) [Example 8A] | – | – | – | – | – | – | > 1 | – | < 1.6 | 3.1 | – | < 1.6 | – | > 25
